According to BindingDB's records for doi:10.1124/jpet.104.069260 (University of Texas At Austin, 2004):
pKi: −log10 of the molar value.

Target: Sodium-dependent serotonin transporter (Homo sapiens, UniProt P31645)
Sequence (P31645 whole entry): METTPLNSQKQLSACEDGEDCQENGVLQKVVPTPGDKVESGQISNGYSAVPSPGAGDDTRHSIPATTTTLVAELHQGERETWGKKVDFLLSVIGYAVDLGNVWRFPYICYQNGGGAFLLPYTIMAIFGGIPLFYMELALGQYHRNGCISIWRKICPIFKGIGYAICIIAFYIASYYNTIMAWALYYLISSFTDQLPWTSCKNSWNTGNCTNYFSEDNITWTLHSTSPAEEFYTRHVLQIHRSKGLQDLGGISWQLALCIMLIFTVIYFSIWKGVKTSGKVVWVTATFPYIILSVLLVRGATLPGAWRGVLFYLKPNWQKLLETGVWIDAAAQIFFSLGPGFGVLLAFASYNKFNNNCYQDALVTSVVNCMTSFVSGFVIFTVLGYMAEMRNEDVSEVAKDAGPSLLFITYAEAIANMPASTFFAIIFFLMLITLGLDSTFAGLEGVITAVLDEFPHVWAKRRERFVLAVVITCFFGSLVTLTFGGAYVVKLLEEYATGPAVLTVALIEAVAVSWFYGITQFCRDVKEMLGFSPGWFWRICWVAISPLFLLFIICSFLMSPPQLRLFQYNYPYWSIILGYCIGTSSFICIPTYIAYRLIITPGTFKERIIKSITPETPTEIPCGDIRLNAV

CC(N)Cc1ccc2c(c1)OCO2 (configuration not stated)
pKi: < 5.00

CN[C@@H](C)Cc1ccc2c(c1)OCO2 [DL-(3,4-Methylenedioxy)methamphetamine]
pKi: < 5.00
